Test results reported in PubChem BioAssay (NCI).
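Interpolation was linear, between the two tested concentrations surrounding the appropriate level; five concentrations were tested over 48 hours in 96-well plates. Abbreviation: GI50, concentration required for 50% inhibition of growth. The concentration for full growth arrest is given as TGI.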

What was measured:
Assay in all cases: growth of human tumour cells (NCI), 48 h
KM12 colon = tested on: KM12 colon
ACHN renal = tested on: ACHN renal
NCI-H460 lung = tested on: NCI-H460 lung
K-562 leukemia = tested on: K-562 leukemia
MDA-MB-435 = tested on: MDA-MB-435
UACC-62 melanoma = tested on: UACC-62 melanoma
HCT-116 colon = tested on: HCT-116 colon
LOX IMVI melanoma = tested on: LOX IMVI melanoma
NCI-H226 lung = tested on: NCI-H226 lung
A549 NSCLC = tested on: A549 NSCLC
786-0 renal = tested on: 786-0 renal
OVCAR-4 ovarian = tested on: OVCAR-4 ovarian
MDA-MB-231 breast = tested on: MDA-MB-231 breast
MOLT-4 leukemia = tested on: MOLT-4 leukemia
CCRF-CEM leukemia = tested on: CCRF-CEM leukemia
SF-268 CNS = tested on: SF-268 CNS
SK-MEL-28 melanoma = tested on: SK-MEL-28 melanoma
TK-10 renal = tested on: TK-10 renal
T-47D breast = tested on: T-47D breast
COLO 205 colon = tested on: COLO 205 colon
HOP-62 NSCLC = tested on: HOP-62 NSCLC
SN12C renal = tested on: SN12C renal
OVCAR-8 ovarian = tested on: OVCAR-8 ovarian
SR leukemia = tested on: SR leukemia
NCI-H522 lung = tested on: NCI-H522 lung
SF-295 CNS = tested on: SF-295 CNS
NCI-H23 lung = tested on: NCI-H23 lung
OVCAR-5 ovarian = tested on: OVCAR-5 ovarian
RXF 393 renal = tested on: RXF 393 renal
DU-145 prostate = tested on: DU-145 prostate
SK-OV-3 ovarian = tested on: SK-OV-3 ovarian
SK-MEL-5 melanoma = tested on: SK-MEL-5 melanoma
UO-31 renal = tested on: UO-31 renal
CAKI-1 renal = tested on: CAKI-1 renal
U251 CNS = tested on: U251 CNS
SNB-19 CNS = tested on: SNB-19 CNS
IGROV1 ovarian = tested on: IGROV1 ovarian
RPMI-8226 leukemia = tested on: RPMI-8226 leukemia
MCF7 breast = tested on: MCF7 breast
HT29 colon = tested on: HT29 colon
HCT-15 colon = tested on: HCT-15 colon
HS 578T breast = tested on: HS 578T breast
BT-549 breast = tested on: BT-549 breast
NCI/ADR-RES ovarian = tested on: NCI/ADR-RES ovarian
M14 melanoma = tested on: M14 melanoma
MALME-3M melanoma = tested on: MALME-3M melanoma
SK-MEL-2 melanoma = tested on: SK-MEL-2 melanoma
OVCAR-3 ovarian = tested on: OVCAR-3 ovarian
PC-3 prostate = tested on: PC-3 prostate
SW-620 colon = tested on: SW-620 colon
HOP-92 NSCLC = tested on: HOP-92 NSCLC
EKVX NSCLC = tested on: EKVX NSCLC
UACC-257 melanoma = tested on: UACC-257 melanoma
HCC-2998 colon = tested on: HCC-2998 colon
SNB-75 CNS = tested on: SNB-75 CNS
SF-539 CNS = tested on: SF-539 CNS

Oc1ccc(Nc2c3ccccc3nc3occ(Cl)c23)cc1
GI50 (KM12 colon): 2780 nM
TGI (KM12 colon): 17 µM
GI50 (ACHN renal): 15.2 µM
TGI (ACHN renal): > 100 µM
GI50 (NCI-H460 lung): 3680 nM
TGI (NCI-H460 lung): 28.9 µM
GI50 (K-562 leukemia): 2240 nM
TGI (K-562 leukemia): 53.1 µM
GI50 (MDA-MB-435): 1530 nM
TGI (MDA-MB-435): 6.51 µM
GI50 (UACC-62 melanoma): 2400 nM
TGI (UACC-62 melanoma): 10.4 µM
GI50 (HCT-116 colon): 5.85 µM
TGI (HCT-116 colon): > 100000 nM
GI50 (LOX IMVI melanoma): 6.68 µM
TGI (LOX IMVI melanoma): > 100000 nM
GI50 (NCI-H226 lung): 3.12 µM
TGI (NCI-H226 lung): 13.5 µM
GI50 (A549 NSCLC): 3.3 µM
TGI (A549 NSCLC): 32.2 µM
GI50 (786-0 renal): 12.9 µM
TGI (786-0 renal): > 100000 nM
GI50 (OVCAR-4 ovarian): 7.44 µM
TGI (OVCAR-4 ovarian): > 100 µM
GI50 (MDA-MB-231 breast): 2430 nM
TGI (MDA-MB-231 breast): 7.39 µM
GI50 (MOLT-4 leukemia): 3140 nM
TGI (MOLT-4 leukemia): 13.2 µM
GI50 (CCRF-CEM leukemia): 1420 nM
TGI (CCRF-CEM leukemia): 6.12 µM
GI50 (SF-268 CNS): 4260 nM
TGI (SF-268 CNS): > 100 µM
GI50 (SK-MEL-28 melanoma): 6.18 µM
TGI (SK-MEL-28 melanoma): 63.8 µM
GI50 (TK-10 renal): 6.46 µM
TGI (TK-10 renal): 50.8 µM
GI50 (T-47D breast): 6.49 µM
TGI (T-47D breast): > 100000 nM
GI50 (COLO 205 colon): 4120 nM
TGI (COLO 205 colon): > 100000 nM
GI50 (HOP-62 NSCLC): 4.37 µM
TGI (HOP-62 NSCLC): 36.2 µM
GI50 (SN12C renal): 2890 nM
TGI (SN12C renal): 26.4 µM
GI50 (OVCAR-8 ovarian): 5500 nM
TGI (OVCAR-8 ovarian): 57.9 µM
GI50 (SR leukemia): 2300 nM
TGI (SR leukemia): 8.62 µM
GI50 (NCI-H522 lung): 2370 nM
TGI (NCI-H522 lung): 8.32 µM
GI50 (SF-295 CNS): 4.65 µM
TGI (SF-295 CNS): > 100 µM
GI50 (NCI-H23 lung): 3.26 µM
TGI (NCI-H23 lung): > 100 µM
GI50 (OVCAR-5 ovarian): 19 µM
TGI (OVCAR-5 ovarian): > 100 µM
GI50 (RXF 393 renal): 3830 nM
TGI (RXF 393 renal): 70.3 µM
GI50 (DU-145 prostate): 22.4 µM
TGI (DU-145 prostate): > 100 µM
GI50 (SK-OV-3 ovarian): 4.77 µM
TGI (SK-OV-3 ovarian): > 100 µM
GI50 (SK-MEL-5 melanoma): 3920 nM
TGI (SK-MEL-5 melanoma): 18.3 µM
GI50 (UO-31 renal): 5.61 µM
TGI (UO-31 renal): 24.4 µM
GI50 (CAKI-1 renal): 3.95 µM
TGI (CAKI-1 renal): > 100 µM
GI50 (U251 CNS): 5630 nM
TGI (U251 CNS): > 100 µM
GI50 (SNB-19 CNS): 4620 nM
TGI (SNB-19 CNS): > 100 µM
GI50 (IGROV1 ovarian): 1190 nM
TGI (IGROV1 ovarian): 5.32 µM
GI50 (RPMI-8226 leukemia): 1610 nM
TGI (RPMI-8226 leukemia): 4.81 µM
GI50 (MCF7 breast): 3380 nM
TGI (MCF7 breast): 11.3 µM
GI50 (HT29 colon): 4490 nM
TGI (HT29 colon): > 100000 nM
GI50 (HCT-15 colon): 4770 nM
TGI (HCT-15 colon): > 100 µM
GI50 (HS 578T breast): 5620 nM
TGI (HS 578T breast): > 100 µM
GI50 (BT-549 breast): 19.4 µM
TGI (BT-549 breast): > 100 µM
GI50 (NCI/ADR-RES ovarian): 2690 nM
TGI (NCI/ADR-RES ovarian): 18.2 µM
GI50 (M14 melanoma): 3.79 µM
TGI (M14 melanoma): 26.8 µM
GI50 (MALME-3M melanoma): 2130 nM
TGI (MALME-3M melanoma): 8.62 µM
GI50 (SK-MEL-2 melanoma): 2620 nM
TGI (SK-MEL-2 melanoma): 7.26 µM
GI50 (OVCAR-3 ovarian): 3120 nM
TGI (OVCAR-3 ovarian): 8.76 µM
GI50 (PC-3 prostate): 2710 nM
TGI (PC-3 prostate): 20.3 µM
GI50 (SW-620 colon): 4710 nM
TGI (SW-620 colon): > 100 µM
GI50 (HOP-92 NSCLC): 90.5 nM
TGI (HOP-92 NSCLC): 8.96 µM
GI50 (EKVX NSCLC): 14.8 µM
TGI (EKVX NSCLC): > 100 µM

Cc1cc(N(CCCNc2ccnc3cc(Cl)ccc23)Cc2ccc3c(c2)OCO3)nc(N2CCOCC2)n1
GI50 (KM12 colon): 340 nM
TGI (KM12 colon): 25.7 µM
GI50 (UACC-257 melanoma): 214 nM
TGI (UACC-257 melanoma): 625 nM
GI50 (NCI-H460 lung): 318 nM
TGI (NCI-H460 lung): 14.1 µM
GI50 (K-562 leukemia): 328 nM
TGI (K-562 leukemia): 10 µM
GI50 (MDA-MB-435): 370 nM
TGI (MDA-MB-435): 1.78 µM
GI50 (UACC-62 melanoma): 217 nM
TGI (UACC-62 melanoma): 0.501 µM
GI50 (HCT-116 colon): 0.245 µM
TGI (HCT-116 colon): 882 nM
GI50 (LOX IMVI melanoma): 0.216 µM
TGI (LOX IMVI melanoma): 534 nM
GI50 (786-0 renal): 0.254 µM
TGI (786-0 renal): 907 nM
GI50 (OVCAR-4 ovarian): 0.402 µM
TGI (OVCAR-4 ovarian): 32.8 µM
GI50 (MDA-MB-231 breast): 303 nM
TGI (MDA-MB-231 breast): 1.37 µM
GI50 (HCC-2998 colon): 329 nM
TGI (HCC-2998 colon): 13.1 µM
GI50 (MOLT-4 leukemia): 283 nM
TGI (MOLT-4 leukemia): 0.953 µM
GI50 (CCRF-CEM leukemia): 380 nM
TGI (CCRF-CEM leukemia): > 100 µM
GI50 (SF-268 CNS): 304 nM
TGI (SF-268 CNS): 24.7 µM
GI50 (SK-MEL-28 melanoma): 0.254 µM
TGI (SK-MEL-28 melanoma): 0.681 µM
GI50 (T-47D breast): 0.323 µM
TGI (T-47D breast): 998 nM
GI50 (COLO 205 colon): 269 nM
TGI (COLO 205 colon): 802 nM
GI50 (SN12C renal): 292 nM
TGI (SN12C renal): 14.4 µM
GI50 (OVCAR-8 ovarian): 312 nM
TGI (OVCAR-8 ovarian): 25.6 µM
GI50 (NCI-H522 lung): 185 nM
TGI (NCI-H522 lung): 0.477 µM
GI50 (SNB-75 CNS): 204 nM
TGI (SNB-75 CNS): 626 nM
GI50 (OVCAR-5 ovarian): 0.29 µM
TGI (OVCAR-5 ovarian): 22.3 µM
GI50 (RXF 393 renal): 202 nM
TGI (RXF 393 renal): 0.53 µM
GI50 (DU-145 prostate): 0.353 µM
TGI (DU-145 prostate): 53.8 µM
GI50 (SK-MEL-5 melanoma): 169 nM
TGI (SK-MEL-5 melanoma): 0.309 µM
GI50 (U251 CNS): 323 nM
TGI (U251 CNS): 3.18 µM
GI50 (SNB-19 CNS): 325 nM
TGI (SNB-19 CNS): > 100 µM
GI50 (IGROV1 ovarian): 338 nM
TGI (IGROV1 ovarian): 3.47 µM
GI50 (RPMI-8226 leukemia): 330 nM
TGI (RPMI-8226 leukemia): 2.15 µM
GI50 (MCF7 breast): 286 nM
TGI (MCF7 breast): 92 µM
GI50 (HT29 colon): 247 nM
TGI (HT29 colon): 695 nM
GI50 (HCT-15 colon): 311 nM
TGI (HCT-15 colon): 11.7 µM
GI50 (HS 578T breast): 288 nM
TGI (HS 578T breast): 18.6 µM
GI50 (BT-549 breast): 0.334 µM
TGI (BT-549 breast): 23.5 µM
GI50 (SF-539 CNS): 251 nM
TGI (SF-539 CNS): 660 nM
GI50 (NCI/ADR-RES ovarian): 692 nM
TGI (NCI/ADR-RES ovarian): 23 µM
GI50 (SK-MEL-2 melanoma): 207 nM
TGI (SK-MEL-2 melanoma): 0.457 µM
GI50 (OVCAR-3 ovarian): 359 nM
TGI (OVCAR-3 ovarian): 1.92 µM
GI50 (PC-3 prostate): 352 nM
TGI (PC-3 prostate): 29.2 µM
GI50 (SW-620 colon): 306 nM
TGI (SW-620 colon): 38.2 µM
GI50 (EKVX NSCLC): 0.299 µM
TGI (EKVX NSCLC): > 100 µM
